# Entries after “also recorded” stand apart in the source; their conditions may differ.
# Legend:
# [1] = system: glutathione (GSH) level; experiment: Glutathione (GSH) level in rat tissues after dietary administration; format: in vivo, Sprague Dawley rat
# Description: Analysis of Quinone Reductase Activity and Glutathione Level in Rat Tissues. Spraque Dawley rats (n=10) at 43 days of age were placed on an appropriate experimental diet (5000, 2500, 1250, 625, and 312.5 mg/kg diet of 4'-BF) for three weeks. After three weeks, animals were sacrificed by carbon dioxide (CO2) asphyxiation. The livers, mammary glands, colons, stomachs, and lungs were collected, rinsed with saline, and frozen in liquid nitrogen and stored at -80° C. until enzyme activities were determined. Individual tissues (except mammary glands) were homogenized in 0.25 M sucrose and centrifuged at 15,000×g for 30 min at 4° C. The supernatant fluids were collected, 20% volume of 0.1 M CaCl2 in 0.25 M sucrose were added. After incubation at 0° C. for 30 min and further centrifuging at 15,000×g for 30 min at 4° C., a clear cytosolic fraction was used for enzyme assay. Mammary glands of each animal were pooled, homogenized in 1 ml ice-cold 0.1 M phosphate buffer pH 6.5 and centrifuged (15,000×g, 30 min at 4° C.), a clear supernatant suitable for enzyme assay resulted. Dicumarol-sensitive QR activity was measured in duplicate in 50 μl of suitable dilution of the tissue supernatant as described for the cellular system. GSH levels were assayed in duplicate using 96-well plates. […] The plates were shaken for 5-10 min and the extent of 2-nitro-5-thiobenzoic acid formation was monitored at 405 nm. A GSH standard curve was used to calculate the GSH content. GSH levels were expressed as nmol/mg protein.
# Induction of Quinone Reductase Activity and Glutathione Level in Rat Tissues. Based on the results in cell cultures, 4'-BF was further evaluated for its inducing potency in rat liver, mammary gland, colon, stomach, and lung. […] The concentration of 4'-BF for maximum induction of GSH was about 1250 to about 2500 mg/kg diet, but varied for different organ sites.
# [2] = system: DMBA-induced mammary tumors; experiment: Inhibition of DMBA-induced mammary carcinogenesis in rats; format: in vivo, female Sprague Dawley rat; settings: for tumor multiplicity (FIG. 9): control 2.63; for mammary tumor multiplicity: control 2.75; for mammary tumor incidence: control 88.9%; for tumor incidence (FIG. 9): control 89.5
# Description: Inhibition of DMBA-induced Mammary Carcinogensis in Rats. On the basis of a 3-week feeding study, maximum tolerated doses were evaluated, and suitable doses were selected for the study of inhibition of DMBA-induced mammary carcinogenesis in rats. Virgin, female Sprague Dawley rats were obtained from Harlan/Sprague-Dawley at 35 days of age. All animals were placed on a diet of Teklad 4% Rat/Mouse chow at this time. After a quarantine period of 1 week, at 42 days of age, the animals were randomized by weight into six groups and placed on the appropriate experimental diet containing 2000 and 4000 mg 4'-bromoflavone/kg diet. At 50 days of age, the animals received a single i.g. dose of 15 mg of DMBA in sesame oil (or vehicle only) following an overnight fast. The rats were maintained on the 4'-bromoflavone diet for one additional week, and then returned to the basal diet without test agent at 57 days of age. During the experiment, all animals were weighed weekly. Palpation for mammary tumors began 3 weeks after the animals received the DMBA, and continued until termination of the study (120 days post DMBA). The date of appearance and location of all tumors was recorded. Animals were observed twice daily to assess their general health. Moribund animals were sacrificed by CO2 asphyxiation. Moribund animals or animals found dead were necropsied immediately. At the termination of the experiment, all mammary tumors were excised and weighed, and mean tumor weight was established. Tumors for Group 2-5 were frozen. The abdominal/inguinal glands of Group 8 were disected free of lymph nodes; one side was frozen, the other side was fixed. Incidence was evaluated with Fisher's exact test and the Logrank test was used for tumor incidence rate. Tumor multiplicity was calculated using Armitage's test for trends in proportions. Latency and tumor weight were evaluated by an unpaired t-test. Survival was analyzed with log-rank analysis.
# Inhibition of DMBA-induced Mammary Tumor Carcinogenesis in Rat. Maximum dose tolerance (MDT) studies (data not included) were performed prior to conducting the chemopreventative studies of 4'-BF in animals. Briefly, a test agent was examined in a three-week study to determine the maximum dose that can be administered without causing suppression of body weight gain or inducing other gross manifestations of toxicity and to determine the effective dose in term of induction of phase II detoxifying enzymes. According to the MDT study, two doses of 4'-BF (2000 and 4000 mg/kg diet) were used for the chemopreventative studies.
# [3] = system: glutathione (GSH); experiment: Induction of glutathione (GSH) in mouse liver and mammary glands (Table 3); format: in vivo
# [4] = system: quinone reductase (QR); experiment: Effect on DMBA-induced QR activity in rat tissues; format: in vivo, Sprague Dawley rat; settings: liver and mammary gland
# Description: Effect of 4'-Bromoflavone on DMBA-induced QR Activity and Cytochrome P4501A1 Activity in Rat Tissues. At 43 days of age, Sprague Dawley rats were placed on various experimental diets (Table 1) for 1 week prior to administration of a single (i.g.) dose of DMBA (15 mg). Animals then were weighed and sacrificed by CO2 asphyxiation. Tissues (livers and mammary glands) were collected, rinsed with saline, frozen in liquid nitrogen, and stored at -80° C. until analysis. Individual tissues were homogenized in 0.05 M Tris-HCl buffer (pH 7.5) containing 0.25 M sucrose. Cytosolic and microsomal fractions were obtained through differential centrifugation. Dicumarol-sensitive QR activity was measured as described above using 50 μl of suitably diluted cytosol supernatants (in duplicate). Cytochrome P4501A1-mediated EROD activities were determined as described previously in R. Poul et al. Anal. Biochem., 107, pp. 265-275 (1980) and S. Sharma et al., Cancer Res., 54, pp. […] (1994), with slight modifications using suitably diluted microsomal protein. Enzyme activities were expressed as nmol/mg protein/min. Protein content was determined using Bradford reagent with BSA as standard, and data were presented as mean ±SE and analyzed using Student's t test (n=5).
# Test animals were placed on various experimental diets for one week (Table 1) prior to a single i.g. dose of DMBA (15 mg). […]
smiles,measurement,setting,value
O=c1cc(-c2ccc(Br)cc2)oc2ccccc12 [4'-Bromoflavone],"GSH level increase, colon","[1]; colon, dietary",1.40-1.72 fold
same,glutathione levels in rat tissues,"[1]; liver, mammary gland, colon, stomach, lung, short-term dietary, P<0.0001",significantly increased
same,"GSH level increase, liver","[1]; liver, dietary",1.62-1.83 fold
same,"GSH level increase, lung","[1]; lung, dietary",1.09-1.42 fold
same,"GSH level increase, mammary gland","[1]; mammary gland, dietary",1.01-1.28 fold
same,"GSH level increase, stomach","[1]; stomach, dietary",1.16-1.17 fold
same,tumor multiplicity (FIG. 9),[2]; 2000 mg/kg diet,0.65 tumors/rat
same,mammary tumor multiplicity,[2]; 2000 mg/kg diet,0.20
same,mammary tumor incidence,[2]; 2000 mg/kg diet,25%
same,tumor incidence (FIG. 9),[2]; 2000 mg/kg diet,30%
same,tumor multiplicity (FIG. 9),[2]; 4000 mg/kg diet,0.20 tumors/rat
same,mammary tumor multiplicity,[2]; 4000 mg/kg diet,0.15
same,mammary tumor incidence,[2]; 4000 mg/kg diet,15%
same,tumor incidence (FIG. 9),[2]; 4000 mg/kg diet,20%
same,tumor latency,"[2]; 2000 or 4000 mg/kg diet, listed as 4'-BF",enhanced greatly; also recorded: greatly increased the tumor latency (P<0.001); also recorded: significantly increased (P<0.01)
same,incidence and multiplicity of mammary tumors,[2]; DMBA-induced,significantly inhibited
same,"GSH (Treated/Control), Liver",[3]; liver,2.11
same,"GSH (Treated/Control), Mammary Gland",[3]; mammary gland,1.77
same,QR activity vs control (basal diet),"[4]; 1 week diet, DMBA 15 mg i.g.",significantly induced
same,QR activity vs DMBA alone,[4]; DMBA and 4'-BF or 4'-BF alone,significant dose-dependent induction

# — patent US6046231A, “Use of 4'-bromoflavone in a cancer chemopreventative composition and method” (The Board of Trustees of the University of Illinois, priority 1999, dated 2000)
